Measured values reported in publication PMC10806767 (JACS Au, 2023).
Ends that are not written are not given here.

Assays:
breast cancer cells = test: Wound healing assay; assay type: cell-based; settings: 36 h, compared with the control group
[1] = system: 4T1-luc mouse mammary tumor; test: In vivo antitumor efficacy and biosafety study, 4T1-luc tumor-bearing mice; settings: 8 mg/kg, peritumoral injection every other day, 19 days
[2] = target: T1, recombinant protein His-SND1 (16-339) (UniProt Q7KZF4 16-339); test: fluorescence polarisation
T1 sequence (looked up): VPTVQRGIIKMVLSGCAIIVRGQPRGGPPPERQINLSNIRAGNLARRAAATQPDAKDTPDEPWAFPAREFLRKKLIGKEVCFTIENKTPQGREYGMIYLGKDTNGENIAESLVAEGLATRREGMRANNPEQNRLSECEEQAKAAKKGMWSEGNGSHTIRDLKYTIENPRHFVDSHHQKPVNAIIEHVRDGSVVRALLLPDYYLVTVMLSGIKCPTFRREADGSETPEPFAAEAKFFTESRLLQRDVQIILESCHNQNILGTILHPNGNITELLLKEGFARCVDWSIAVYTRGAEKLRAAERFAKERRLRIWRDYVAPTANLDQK

Molecule: C[S+]1CC[C@@H](C(=O)N[C@@H](CCC(=O)O)C(=O)N[C@@H](Cc2c[nH]c3ccccc23)C(=O)O)NC(=O)[C@H](CCCNC(=N)N)NC(=O)[C@H](Cc2c[nH]cn2)NC(=O)[C@H](CCC(=O)O)NC(=O)[C@@H](NC(=O)[C@H](CCCNC(=N)N)NC(=O)[C@H](CCCNC(=N)N)NC(=O)OCC2c3ccccc3-c3ccccc32)CC[S+](C)Cc2cccc(c2)C1 (stereo partly drawn) [Wpc]
- tumor migration suppression (breast cancer cells): little effect
- tumor growth suppression (in words) [1]: failed to suppress the tumor growth

Molecule: DWNEPAEEWGNWVDE (peptide, UniProt Q86UE4 393-407, looked up, also: FITC label (position not given here)) [MS2D-E]
- Kd [2]: ~34 nM
